Measured values from patent US5239084A, “Substituted aminoalkyl biphenyl compounds” (Hoffmann-La Roche Inc., priority 1990, dated 1993).
Counter-ions that a name gives are not always drawn.

molecular target: T1, 2,3-epoxysqualene-lanosterol cyclase (Candida albicans, UniProt Q04782); experiment: inhibition of 2,3-epoxysqualene-lanosterol cyclase from Candida albicans (cell-free extract, 14C-squalene epoxide); assay type: biochemical; conditions: not given
T1 construct: there was obtained a cell-free extract (CFE) as the supernatant; endogenous in cells; host or cells: Candida albicans culture, protoplasts ruptured, cell-free extract (10000 g supernatant)
T1 sequence (Q04782 whole entry): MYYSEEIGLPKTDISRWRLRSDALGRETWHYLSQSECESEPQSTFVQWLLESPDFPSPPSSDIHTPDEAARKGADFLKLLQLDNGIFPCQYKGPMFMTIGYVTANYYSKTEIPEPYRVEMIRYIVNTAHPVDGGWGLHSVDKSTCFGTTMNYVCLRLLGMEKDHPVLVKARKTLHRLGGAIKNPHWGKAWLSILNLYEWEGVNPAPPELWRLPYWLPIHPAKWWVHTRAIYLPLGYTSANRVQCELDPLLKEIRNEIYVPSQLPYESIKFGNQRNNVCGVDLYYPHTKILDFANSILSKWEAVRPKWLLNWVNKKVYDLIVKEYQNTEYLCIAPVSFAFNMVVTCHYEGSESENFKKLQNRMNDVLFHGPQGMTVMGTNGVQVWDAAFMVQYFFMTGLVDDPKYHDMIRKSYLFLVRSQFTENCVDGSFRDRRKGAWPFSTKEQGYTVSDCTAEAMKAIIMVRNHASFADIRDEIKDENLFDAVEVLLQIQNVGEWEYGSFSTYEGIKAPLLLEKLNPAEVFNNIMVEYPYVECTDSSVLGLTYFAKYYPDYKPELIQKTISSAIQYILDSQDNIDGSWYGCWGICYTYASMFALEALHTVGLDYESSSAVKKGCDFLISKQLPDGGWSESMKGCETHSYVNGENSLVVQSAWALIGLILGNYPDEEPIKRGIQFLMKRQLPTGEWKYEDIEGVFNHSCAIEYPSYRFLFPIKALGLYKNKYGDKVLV

Going from `C=CCN(C)C(C)c1ccc(-c2ccc(C(=O)c3ccccc3)cc2)cc1` (racemic) [Compound 18, rac-4'-[1-(Allylmethylamino)ethyl]-4-biphenylyl phenyl ketone hydrochloride] to `C=CCN(C)Cc1ccc(-c2ccc(C(=O)c3ccc4ccccc4c3)cc2)cc1` [Compound 23, 4'-[(Allylmethylamino)methyl]-4-biphenylyl 2-naphthyl ketone hydrochloride], the IC50 rises from 90 nM to 409 nM (4.5-fold).

`C=CCN(C)Cc1ccc(-c2ccc(C(=O)c3ccc(F)cc3)cc2)cc1` [Compound 15, 4'-[(Allylmethylamino)methyl]-4-biphenylyl p-fluorophenyl ketone hydrochloride] and `C=CCN(C)Cc1ccc(-c2ccc(C(=O)c3ccc(C#N)cc3)cc2)cc1` [Compound 19, p-[[4'-[(Allylmethylamino)methyl]-4-biphenylyl]carbonyl]-benzonitrile hydrochloride] are within 1.5-fold of each other in IC50: 100 nM for the first, 109 nM for the second.

Compared with `C=CCN(C)Cc1ccc(-c2ccc(C(=O)c3cccc4ccccc34)cc2)cc1` [Compound 22, 4'-[(Allylmethylamino)methyl]-4-biphenylyl 1-naphthyl ketone hydrochloride], `C=CCN(C)Cc1ccc(-c2ccc(C(=O)c3ccc(F)cc3F)cc2)cc1` [Compound 31, 2,4-difluorophenyl 4'-[(allylmethylamino)methyl]-4-biphenylyl ketone] is 20-fold lower in IC50: 434 nM for the first, 21.2 nM for the second. The second is the more potent here.

Going from `C=CCN(C)Cc1ccc(-c2ccc(C(=O)CCCCC)cc2)cc1` [Compound 38, 4'-[(allylmethylamino)methyl]-4-biphenylyl pentyl ketone hydrochloride] to `C=CCN(C)Cc1ccc(-c2ccc(C(=O)CCC=C(C)C)cc2)cc1` [Compound 39, 4'-[(allylmethylamino)methyl]-4-biphenylyl 4-methyl-3-pentenyl ketone], the IC50 falls from 62.6 nM to 25.9 nM (2.4-fold).

same assay, conditions: cell-free extract, pH 6.9, 30° C., 1 hour

In the case of `Cc1ccccc1C(=O)c1ccc(-c2ccc(CN(C)C)cc2)cc1` [Compound 32], the IC50 is reported as 0/03.

same assay, conditions: cell-free extract, pH 6.9, 30° C., 1 hour; read-out: IC50 (converted)

`CC(c1ccc(-c2ccc(C(=O)c3ccccc3)cc2)cc1)N(C)C` (racemic) [Compound 2, rac-4'-[1-(dimethylamino)ethyl]-4-biphenylyl phenyl ketone hydrochloride] and `CN(C)Cc1ccc(-c2ccc(C(=O)c3ccccc3)cc2)cc1` [Compound 1, 4'-[(dimethylamino)methyl]-4-biphenylyl phenyl ketone hydrochloride] are within 1.5-fold of each other in IC50: 219 nM for the first, 284 nM for the second.

First: CN(C)Cc1ccc(-c2ccc(C(=O)c3ccc(F)cc3)cc2)cc1 [Compound 3, 4'-[(Dimethylamino)methyl]-4-biphenyl p-fluorophenyl ketone hydrochloride]
Second: CN(C)Cc1ccc(-c2ccc(C(=O)c3ccc(Br)cc3)cc2)cc1 [Compound 6, p-Bromophenyl 4'-[(dimethylamino)methyl]-4-biphenylyl ketone hydrochloride]
The IC50 of the first is 2.9-fold higher: 300 nM for the first, 102 nM for the second.

Compared with `CN(C)Cc1ccc(-c2ccc(C(=O)c3ccc(Cl)cc3Cl)cc2)cc1` [Compound 4, 2,4-dichlorophenyl 4'-[(dimethylamino)methyl]-4-biphenyl ketone hydrochloride], `C=CCN(C)Cc1ccc(-c2ccc(C(=O)c3ccc(Cl)cc3Cl)cc2)cc1` [Compound 16, 2,4-dichlorophenyl 4'-(allylmethylamino)-methyl]-4-biphenylyl ketone hydrochloride] is 5.1-fold lower in IC50: 200 nM for the first, 39 nM for the second.

Going from `CN(C)Cc1ccc(-c2ccc(C(=O)c3ccc([N+](=O)[O-])cc3)cc2)cc1` [Compound 5, 4'-[(Dimethylamino)methyl]-4-biphenylyl p-nitrophenyl ketone hydrochloride] to `C=CCN(C)Cc1ccc(-c2ccc(C(=O)c3ccc([N+](=O)[O-])cc3)cc2)cc1` [Compound 17], the IC50 falls from 290 nM to 41.4 nM (7-fold).

Going from `CN(C)Cc1ccc(-c2ccc(C(=O)c3ccc(Cl)cc3Cl)cc2Cl)cc1` [Compound 7] to `C=CCN(C)Cc1ccc(-c2ccc(C(=O)c3ccc(Cl)cc3Cl)cc2Cl)cc1` [Compound 21], the IC50 falls from 239 nM to 58.5 nM (4.1-fold).

Going from `CN(C)Cc1ccc(-c2ccc(C(=O)c3ccc([N+](=O)[O-])cc3Cl)cc2)cc1` [Compound 8, 2-Chloro-4-nitrophenyl 4'-[(dimethylamino)methyl]-4-biphenyl ketone hydrochloride] to `C=CCN(C)Cc1ccc(-c2ccc(C(=O)c3ccc([N+](=O)[O-])cc3Cl)cc2)cc1` [Compound 24, 4'-[[(Allylmethylamino)methyl]-4-biphenylyl 2-chloro-4-nitrophenyl ketone hydrochloride], the IC50 falls from 111 nM to 26.1 nM (4.3-fold).

Compared with `CN(C)C(C)(C)c1ccc(-c2ccc(C(=O)c3ccccc3)cc2)cc1` [Compound 9, 4'-[1-(dimethylamino)-1-methylethyl]-4-biphenylyl phenyl ketone hydrochloride], `CCN(C)Cc1ccc(-c2ccc(C(=O)c3ccccc3)cc2)cc1` [Compound 25, 4'-[Ethylmethylamino)methyl]-4-biphenylyl phenyl ketone hydrochloride] is 18-fold lower in IC50: 2500 nM for the first, 137 nM for the second.

Compared with `CN(C)Cc1ccc(-c2ccc(C(=O)c3ccc(I)cc3)cc2)cc1` [Compound 10, 4'-[(Dimethylamino)methyl]-4-biphenylyl p-iodophenyl ketone hydrochloride], `CN(C)Cc1ccc(-c2ccc(C(=O)c3ccc(C#N)cc3)cc2)cc1` [Compound 11, p-[[(4'-[(Dimethylamino)methyl]-4-biphenylyl]carbonyl]-benzonitrile hydrochloride] is 1.7-fold higher in IC50: 98.4 nM for the first, 170 nM for the second.

`CN(C)Cc1ccc(-c2ccc(C(=O)c3cccc4ccccc34)cc2)cc1` [Compound 12, 4'-[(Dimethylamino)methyl]-4-biphenylyl 1-naphthyl ketone hydrochloride] and `CN(C)Cc1ccc(-c2ccc(C(=O)c3ccc4ccccc4c3)cc2)cc1` [Compound 13, 4'-[(Dimethylamino)methyl]-4-biphenylyl 2-naphthyl ketone hydrochloride] are within 1.5-fold of each other in IC50: 771 nM for the first, 522 nM for the second.

`CNCc1ccc(-c2ccc(C(=O)c3ccccc3)cc2)cc1` [Compound 26, 4'-[(Methylamino)methyl]-4-biphenylyl phenyl ketone hydrochloride] and `COc1ccccc1C(=O)c1ccc(-c2ccc(CN(C)C)cc2)cc1` [Compound 29] are within 1.5-fold of each other in IC50: 592 nM for the first, 550 nM for the second.

`CN(C)Cc1ccc(-c2ccc(C(=O)c3ccc(Br)cc3Br)cc2)cc1` [Compound 27] and `C=CCN(C)Cc1ccc(-c2ccc(C(=O)c3ccc(Br)cc3Br)cc2)cc1` [Compound 28] are within 1.5-fold of each other in IC50: 50.7 nM for the first, 40.1 nM for the second.

Compared with `CN(C)Cc1ccc(-c2ccc(C(=O)c3ccc(F)cc3F)cc2)cc1` [Compound 30], `C=CCN(C)Cc1ccc(-c2ccc(C(=O)c3ccccc3C)cc2)cc1` [Compound 33] is 2.4-fold lower in IC50: 82.5 nM for the first, 33.8 nM for the second.

First: C=CCN(C)Cc1ccc(-c2ccc(C(=O)c3ccccc3C)cc2)cc1 [Compound 34]
Second: CC(C)=CCCC(=O)c1ccc(-c2ccc(CN(C)C)cc2)cc1 [Compound 36, 4'-[(dimethylamino)methyl]-4-biphenylyl 4-methyl-3-pentenyl ketone hydrochloride]
The IC50 of the first is 6-fold higher: 50.6 nM for the first, 8.38 nM for the second.

Going from `CCCCCC(=O)c1ccc(-c2ccc(CN(C)C)cc2)cc1` [Compound 35, 4'-[(dimethylamino)-methyl]-4-biphenylyl pentyl ketone hydrochloride] to `CN(C)Cc1ccc(-c2ccc(C(=O)CCCCCCCCO)cc2)cc1` [Compound 37, 4'-[(dimethylamino)methyl]-4-biphenylyl 8-hydroxyoctyl ketone hydrochloride], the IC50 falls from 89.6 nM to 42.1 nM (2.1-fold).
